Laboratory results published in US6951887B2 (The Research Foundation of State University of New York, priority 1998, dated 2005).

Tests used:
SW480 (Colon) = assay: killing of cultured cells, SW480; assay type: cell-based; design: key: “+” indicates that the cells were killed by treatment; “−” indicates that they were not; “+/−” indicates a slow marginal response seen only in a few special cases with fibroblasts experimentally transformed by introduction of the ras oncogene; details: compound at two to fourfold above its threshold killing concentration
Source text: (§1) Table 1: Summarized are the responses of cells in culture to killing by example members of the family of blocked lipoate derivatives that are the object of this invention as well as one control compound (dihydroxyoctanoic acid). At right is indicated the specific cell line followed by the tissue of origin of the cell line. Across the top are listed the specific compounds tested. Each blocked lipoate derivative was used at two to fourfold above its threshold killing concentration. [These concentrations range form 0.15 mM (60 ug/ml or 60 mg/kg) to 2.5 mM (800 ug/ml or 800 mg/kg) (see EXAMPLE 11).] […] “+/−” indicates a slow marginal response seen only in a few special cases with fibroblasts experimentally transformed by introduction of the ras oncogene (EXAMPLE 10).
(§2) First, each cell type to be tested was plated at low densities in the wells of a standard 6×24 well tissue culture plate. (Multiple wells are seeded for each cell type.)
(§3) Second, the cells were allowed to grow to moderate densities. Transformed cells are in contact and non-transformed cells are contact-inhibited under these conditions.
(§4) Third, the lipoate derivatives to be tested were added to individual wells. In these experiments each compound was added at two to fourfold above the threshold killing concentration for cancer cells (EXAMPLE 11).
(§5) Fourth, cells were monitored over the next several days.

B16 (Skin) = assay: killing of cultured cells, B16; assay type: cell-based; design: key: “+” indicates that the cells were killed by treatment; “−” indicates that they were not; “+/−” indicates a slow marginal response seen only in a few special cases with fibroblasts experimentally transformed by introduction of the ras oncogene; details: compound at two to fourfold above its threshold killing concentration
Source text: as §1, §2, §3, §4, §5

RD (Embryo) = assay: killing of cultured cells, RD; assay type: cell-based; design: key to cells killed by treatment: “+” indicates that the cells were killed by treatment; “−” indicates that they were not; “+/−” indicates a slow marginal response seen only in a few special cases with fibroblasts experimentally transformed by introduction of the ras oncogene
Source text: as §1, §2, §3, §4, §5

Saos 2 (Bone) = assay: killing of cultured cells, Saos 2; assay type: cell-based; design: key: “+” indicates that the cells were killed by treatment; “−” indicates that they were not; “+/−” indicates a slow marginal response seen only in a few special cases with fibroblasts experimentally transformed by introduction of the ras oncogene; details: compound at two to fourfold above its threshold killing concentration
Source text: as §1, §2, §3, §4, §5

NIH 3T3 parental = assay: killing of cultured cells, parental NIH 3T3; assay type: cell-based; details: 120 ug/ml, ca. 24 hours of treatment
Source text: as §1, §2
Second, the cells were allowed to grow to moderate densities. Transformed cells are in contact and non-transformed cells are contact-inhibited under these conditions. […]
as §5
NIH-3T3 cells are relatively normal, noncancerous cells. However, if an activated allele of the ras oncogene is introduced into these cells they become highly malignant (cancerous) as assessed by several assays (REFERENCE).

MDCK (Kidney) = assay: killing of cultured cells, MDCK; assay type: cell-based; details: 120 ug/ml, ca. 48 hours
Source text: as §1, §2, §3, §4, §5

cancer cells in culture = assay: threshold killing concentration and dose response in cultured cells; assay type: cell-based
Source text: First, each compound killed cancer cells in culture at or above a relatively narrow, specific concentration range, but not below. The threshold concentrations given below represent the approximate center of this range which extended roughly two to threefold. […] Below these saturation ranges, sensitive cells survived and grew. They could be removed and replated to grow, apparently indefinitely, under these conditions. […] This was a highly unusual dose/response profile. The threshold killing concentrations (ranges) varied between individual compounds. Examples of these threshold killing concentrations were as follows: bis-benzoyl lipoate (EXAMPLE 3) 60 mg/liter (60 mg/kg), monoacetyl lipoate (EXAMPLE 4) 100 mg/liter (100 mg/kg); bis-acetyl lipoate (EXAMPLE 2) 600 mg/liter (600 mg/kg).
These changes were ultimately followed by cell death if treatment was continued. However, these morphological changes were reversed, and the cells recovered, if the lipoate derivative was removed during this initial exposure. As with the dose/response profile of the preceeding paragraph, this reversible induction of morphological change followed by commitment to cell death is highly idiosyncratic. The discovery that this behavior was shown by all tested members of the class of compounds that are the object of this invention was, again, very strong evidence that these compounds are, in fact, a functionally coherent class.

[1] = tested on: HeLa (cervical cancer) cells; assay: TUNEL assay for apoptosis; assay type: cell-based; details: ca. 20-24 hours, ca. twofold above threshold killing concentration
Source text: In order to understand the experiment described in this Example is necessary to review details concerning the specific assay used in the experiments. Nuclear DNA of cells is normally present in the very long molecules making up chromosomes. These very long polymer molecules have only extremely rare free ends. In contrast, after the induction of apoptosis the cell begins to destroy itself and, in the process, introduces an extremely large number of breaks in its DNA in the process of reducing it to its small monomer constituents. The appropriate enzyme —terminal transferase—will add nucleotides to the free ends of DNA molecules. Moreover, this enzyme will use monomers (nucleotides) for this addition reaction that have highly fluorescent groups added to them. Thus, if the nuclei of normal cells—with few free DNA ends—are exposed to terminal transferase and fluorescent monomers very little fluorescence is added to these nuclei. In contrast, when these components are added to the nuclei of cells undergoing apoptosis and very large number of fluorescent monomers are added—to the very many DNA ends that are present—resulting in a massive introduction of fluorescence. The conventional assay based on these properties is referred by the acronym TUNEL. […] HeLa cancerous cells were plated in several wells in a tissue culture dish. […]

B-16 melanoma = assay: B-16 system, subcutaneous tumors; assay type: in vivo, mouse; details: 50 mg/kg IP twice daily plus twice daily injection directly into the tumor mass
Source text: The B-16 melanoma strain was introduced either subcutaneously or intraperitoneally into individuals of the C57/BL syngeneic mouse strain (7). When left untreated such mice develop massive tumors in the immediate area of injection as well as secondary metastases throughout the animal—including in the liver and the lungs. These malignant growths result in the early death of the animals. Moreover, the resulting malignant growths are made up of darkly pigmented malignant melanocytes—making their assessment convenient and highly reliable. We will henceforth refer to this as the “B-16 system”.
Second, a group of animals were injected at a subcutaneous site with B-16 cells. […] As this time, one group oL animals (experimentals) began a twice-daily series of injections of the bis-acetyl lipoate derivative (100 mg/kg in 100 ul of isotonic saline) and a second set (controls) of corresponding injections of the saline solvent alone. [See EXAMPLES 2, 8 and 11 for the details of bis-acetyl lipoate derivative.]
Third, in several animals subcutaneous tumors were produced as in the preceding paragraph. After the tumors had grown to visible, palpable size, these animals received both a twice daily IP (systemic) dose of 50 mg/kg of bis-benzoyl lipoate as well as a twice daily direct injection a second dose of the same volume directly into the tumor mass.

O=C(O)CCCCC(CCSC(=O)c1ccccc1)SC(=O)c1ccccc1 (centres unmarked) [bis-benzoyl lipoate, 6,8-bisbenzoylmercaptooctanoic acid]
cells killed by treatment (SW480 (Colon)): + | cells killed by treatment (B16 (Skin)): + | cell killing, embryonic cancer cells (FIG. 1) (RD (Embryo); 120 ug/ml, ca. 48 hours): efficiently killed | cells killed by treatment (RD (Embryo); RD, Embryo, compound at two to fourfold above its threshold killing concentration): + | cells killed by treatment (Saos 2 (Bone)): + | effect on noncancerous parental NIH3T3 cells (FIG. 2) (NIH 3T3 parental): unaffected | effect on normal (non-cancerous) kidney epithelial cell line (FIG. 1) (MDCK (Kidney)): not detectably affected | effective dose in cell culture (cancer cells in culture): 60 µg/mL | threshold killing concentration (cancer cells in culture; approximate center of a range extending two to threefold): 60 mg/L | induction of apoptosis (TUNEL) [1]: induces apoptosis | response of subcutaneous tumor (B-16 melanoma): especially robust response
